Biological target: T1, rhCRTh2 (Homo sapiens, UniProt Q9Y5Y4)
T1 construct: expressed in transfected cells; expression induced with sodium butyrate; membrane preparation
T1 sequence (Q9Y5Y4 1-395): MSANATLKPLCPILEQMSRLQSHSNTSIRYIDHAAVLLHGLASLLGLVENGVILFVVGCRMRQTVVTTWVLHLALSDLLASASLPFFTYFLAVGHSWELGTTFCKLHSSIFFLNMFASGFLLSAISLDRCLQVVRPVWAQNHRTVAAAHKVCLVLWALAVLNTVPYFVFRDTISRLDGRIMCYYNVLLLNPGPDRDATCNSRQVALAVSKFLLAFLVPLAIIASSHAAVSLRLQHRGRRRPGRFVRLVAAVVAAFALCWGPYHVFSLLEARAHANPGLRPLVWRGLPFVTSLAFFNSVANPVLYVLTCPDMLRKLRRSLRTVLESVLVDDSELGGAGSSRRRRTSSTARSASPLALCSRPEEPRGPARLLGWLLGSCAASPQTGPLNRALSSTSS
Assay: Ligand binding assay, [3H]PGD2 SPA on HEK cell membranes
Conditions: [3H]PGD2 displacement; membranes of HEK cells expressing rhCRTh2/Gα16; SPA beads; 2 h at RT; read-out: pIC50 value (converted)
Method: [^3H]PGD2 was purchased from Perkin Elmer Life Sciences with a specific activity of 100-210 Ci/mmol. All other chemicals were of analytical grade.
HEK cells expressing rhCRTh2/Gα16 were routinely maintained in DMEM containing 10% Foetal Bovine Serum (HyClone), 1 mg/ml geneticin, 2 mM L-glutamine and 1% non-essential amino acids. For the preparation of membranes, the adherent transfected HEK cells were grown to confluence in two layer tissue culture factories (Fisher, catalogue number TKT-170-070E). Maximal levels of receptor expression were induced by addition of […] sodium butyrate for the last 18 h of culture. The adherent cells were washed once with phosphate buffered saline (PBS, 50 ml per cell factory) and detached by the addition of 50 ml per cell factory of ice-cold membrane homogenisation buffer [20 mM HEPES (pH 7.4), 0.1 mM dithiothreitol, 1 mM EDTA, 0.1 mM phenyl methyl sulphonyl fluoride and 100 μg/ml bacitracin]. […] The final pellet was re-suspended in 4 ml of membrane homogenisation buffer per cell factory used and the protein content determined. […]
All assays were performed in Corning clear bottomed, white 96-well NBS plates (Fisher). […] (The optimum coating concentrations were determined for each batch of membranes) The beads were pelleted by centrifugation (800×g for 7 minutes at 4° C.), washed once with assay buffer (50 mM HEPES pH 7.4 containing 5 mM magnesium chloride) and finally re-suspended in assay buffer at a bead concentration of 10 mg/ml.
Each assay contained 20 μl of 6.25 nM [^3H]PGD2, 20 μl membrane saturated SPA beads both in assay buffer and 10 μl of compound solution or 13,14-dihydro-15-keto prostaglandin D2 (DK-PGD2, for determination of non-specific binding, Cayman chemical company). […] The assay plate was incubated at RT for 2 h and counted on a Wallac Microbeta liquid scintillation counter (1 minute per well).

Row | Structure (SMILES) | IC50
1 | C[C@H]1CN(Cc2cc(Cl)ccc2CCC(=O)O)CCN1C(=O)Cc1ccccc1 [Example 4, 3-(4-chloro-2-{[(3S)-3-methyl-4-(phenylacetyl)piperazin-1-yl]methyl}phenyl)propanoic acid] | 0.0794 µM
2 | C[C@H]1CN(Cc2cc(Cl)ccc2CC(=O)O)CCN1S(=O)(=O)c1ccccc1 [Example 9, (4-chloro-2-{[(3S)-3-methyl-4-(phenylsulfonyl)piperazin-1-yl]methyl}phenyl)acetic acid] | 0.0141 µM
3 | C[C@H]1CN(Cc2cc(Cl)ccc2CC(=O)O)CCN1C(=O)Cc1ccc(F)cc1F [Example 12, [4-chloro-2-({(3S)-4-[(2,4-difluorophenyl)acetyl]-3-methylpiperazin-1-yl}methyl)phenyl]acetic acid] | 0.00794 µM
